# Assays:
# Jurkat (JM) cells [1] = experiment: CPI/PI staining as marker of cell viability in proliferating Jurkat cells; assay type: cell-based; conditions: 98% viable, 10 μL CPI (100 μg/mL DMSO) in 90 μL cells
# Description: (§1) Jurkat (JM) cells were grown at 37° C. in a humidified air atmosphere with 5% CO2 in RPMI (Invitrogen, #61870) supplemented with 10% heat-inactivated fetal bovine serum (Invitrogen, #10108-165). 90 μL proliferating Jurkat cells (cell density 1.1×10^6, 98% viable determined using the NC-100 NucleoCounter system following the manufacturer's (ChemoMetec) protocol) were added 10 μL CPI (7-diethylamino-3-((4′-(iodoacetyl)amino)phenyl)-4-methylcoumarin, Sigma 78264 CAS no. 76877-34-4) dissolved in DMSO (100 μg CPI pr. mL DMSO) and mixed by pipetting. Cells were loaded into a NucleoCassette, containing the DNA stain propidium iodide (PI). The cells were investigated using an Olympus IX50 fluorescent microscope, and images were captured using a Lumenera CCD camera and in-house developed software. PI and CPI fluorescence were detected using, respectively, U-MWG2 (green long pass: 510-550 nm) and U-MNUA2 (UV band pass, 330-385 nm) filter cubes (Olympus).
# Jurkat (JM) cells [2] = experiment: NAM/PI staining to determine viability of proliferating Jurkat cells (fluorescence microscopy); assay type: cell-based; conditions: 99% viable, 10 μL NAM (100 μg/mL DMSO) in 90 μL cells, UV band pass filter
# Description: as §1, with “1.2×10^6, 99%” for “1.1×10^6, 98%”, “(ChemoMetec A/S)” for “(ChemoMetec)”, “NAM (N-(9-acridinyl)maleimide, Sigma, #01665,” for “CPI (7-diethylamino-3-((4′-(iodoacetyl)amino)phenyl)-4-methylcoumarin, Sigma 78264”, “49759-20-8)” for “76877-34-4)”, “NAM” for “CPI”
# HEK293 cells = experiment: NAM/PI staining to determine viability of outgrown HEK293 cells (fluorescence microscopy); assay type: cell-based, human; conditions: for staining of Triton X-100 treated cells: HEK293 cells treated with 0.25% Triton X-100, then 10 μg/mL NAM, PI from NucleoCassette
# Description: HEK293 cells were grown at 37° C. in a humidified air atmosphere with 5% CO2 in DMEM (Invitrogen, #31966) supplemented with 10% heat-inactivated fetal bovine serum (Invitrogen, #10108-165). Cells were harvested with 0.5 mL of trypsin (Invitrogen, #25300) and neutralized with 5 mL medium (DMEM+10% FCS) two days after they had reached full confluency. These outgrown HEK293 cells (cell density 1.6×10^6, 78% viable determined using the NC-100 NucleoCounter system following the manufacturer's (ChemoMetec) protocol) were stained with 10 μg/mL NAM (Sigma, #01665). Another cell sample were treated with 0.25% Triton X-100 (Sigma, #T9284) and hereafter added 10 μg/mL NAM. After staining, each cell sample was loaded into a NucleoCassette, containing the DNA stain propidium iodide (PI). The cells were investigated using an Olympus IX50 fluorescent microscope, and images were captured using a Lumenera CCD camera and in-house developed software. PI and NAM fluorescence were detected using, respectively, U-MWG2 (green long pass: 510-550 nm) and U-MNUA2 (UV band pass, 330-385 nm) filter cubes (Olympus).
# Drosophila S2 cells = experiment: NAM/PI staining to determine viability of Drosophila S2 cells (fluorescence microscopy); assay type: cell-based, Drosophila melanogaster; conditions: 99% viable, diluted 10 times in PBS, 10 μg/mL NAM
# Description: (Drosophila melanogaster Schneider line-2 (S2) cells were originally derived from late embryonic stage Drosophila embryos.) Drosophila S2 cells were grown at 28° C. without shaking in Schneider's Drosophila medium (Invitrogen, #21720) supplemented with 10% heat-inactivated fetal bovine serum (Invitrogen, #10108-165). S2 cells (cell density 1.7×10^7, 99% viable determined using the YC-100 NucleoCounter system with diploid settings following the manufacturer's (ChemoMetec) protocol) were diluted 10 times in PBS and stained with 10 μg/mL NAM (Sigma, #01665). Cells were loaded into a NucleoCassette, containing the DNA stain propidium iodide (PI). The cells were investigated using an Olympus IX50 fluorescent microscope, and images were captured using a Lumenera CCD camera and in-house developed software. PI and NAM fluorescence were detected using, respectively, U-MWG2 (green long pass: 510-550 nm) and U-MNUA2 (UV band pass, 330-385 nm) filter cubes (Olympus).
# [3] = Excitation spectra of NAM with -SH reagents (spectrofluorophotometer); assay type: physicochemical
# Description: The excitation spectra of NAM, glutathione GSH, GSSG and DTT and combinations thereof were obtained using a spectrofluorophotometer (RF-5301 Fluorescence Spectrophotometer, Shimadzu). 10 μL NAM dissolved in DMSO (100 μg/mL) were added to 3 mL distilled water (resulting concentration of NAM; 0.33 μg/mL) in a quartz cuvette and the excitation spectrum was recorded. Likewise were the spectra of NAM (0.33 μg/mL) together with GSH (167 μg/mL), NAM (0.33 μg/mL) together with GSSG (167 μg/mL), NAM together with DTT (167 μg/mL), GSH (167 μg/mL) alone, GSSG (167 μg/mL) alone and DTT (167 μg/mL) alone recorded.
# MCF-7 cells = experiment: Intracellular localization of fluorescent NAM in GFP / H2B-GFP expressing cells; assay type: cell-based; conditions: 10 μg/ml NAM
# Source text: (§2) MCF-7 (ATTC HTB-22) and U2OS (ATTC HTB-96) cells were cultivated in RPMI (Invitrogen, #61870)+10% FCS (Invitrogen, #10108-165). Cells were transfected with, respectively, pEGFP-C1 (Clontech) and pBOS-H2B-GFP (Pharmingen, BD Biosciences) using Lipofectamine 2000 (Invitrogen, #11668-027) according to manufacturer's instructions. Stable cells lines expressing GFP (green fluorescent protein) or H2B-GFP (GFP N-terminally fused to histone H2B) were cultivated in, respectively, T25 flasks and in chamber slides (Nunc) to 75% confluency. Cells from T25 flasks were harvested with 0.5 ml of trypsin (Invitrogen, #25300), neutralized with 5 ml of medium (RPMI+10% FCS), stained with 10 μg/ml NAM (N-(9-acridinyl), maleimide, Sigma, #01665) prior to mounting on a microscope slide. Cells grown on chamber slides were directly stained with 10 μg/ml NAM (N-(9-acridinyl)-maleimide). Olympus IX50 was used for microscopy, and images were captured using a Lumenera CCD camera and in-house developed software. GFP and NAM fluorescence were detected using, respectively, U-MNIB3 and U-MNUA2 filter cubes (Olympus).
# (§3) Cells expression GFP or H2B-GFP were used for determining the intracellular localization of fluorescent NAM.
# U2OS cells = experiment: as above; assay type: cell-based; conditions: 10 μg/ml NAM
# Source text: as §2, §3
# S. pombe strain Eg328 = experiment: NAM and propidium iodide staining of fission yeast; assay type: cell-based, Schizosaccharomyces pombe
# Description: S. pombe strain Eg328, h^90 smt-0 ura4-D18, (ATCC 90720; Styrkarsdottir U et al. Curr. Genet. 23: 184-186, 1993) was grown in a rotary shaker at 29° C. to a density of 1×10^7 cells/ml in EMM minimal medium (Moreno et al., Methods Enzym. 194: 795-823, 1991) supplemented with 10 mM of L-uridine (Sigma, U3750). Cells were collected by centrifuging, washed with sterile water and stained with 10 μg/ml NAM (N-(9-acridinyl)-maleimide, Sigma, #01665) and 10 μg/ml propidium iodide (Applichem, #A2261.9010) prior to mounting on a microscope slide. Olympus IX50 was used for microscopy, and images were captured using a Lumenera CCD camera and in-house developed software. Propidium iodide and NAM fluorescence were detected using, respectively, U-MWG2 and U-MNUA2 filter cubes (Olympus).
# [4] = system: primary murine splenocytes; experiment: NAM/PI staining to determine viability of primary murine splenocytes; assay type: cell-based, C57BL/6 mouse; conditions: 90% viable, 10 μL NAM (100 μg/mL DMSO) in 90 μL cells
# Description: The spleen from a C57BL/6 mouse was placed in ice-cold PBS and gently ground using the end of a sterile syringe. The suspension was centrifuged at 300 g for 10 minutes; the pellet was resuspended in 1 mL 0.83% NH4Cl to lyse erythrocytes and incubated for 3 minutes on ice. The cells were then added 14 mL PBS and centrifuged at 300 g for 10 minutes. The splenocytes were resuspended in RPMI (Invitrogen, #61870) supplemented with 10% heat-inactivated fetal bovine serum (Invitrogen, #10108-165), 100 U/mL penicillin and 100 μg/mL streptomycin (Invitrogen, #15140-122). The cell clumps were allowed to sediment and were removed by pipetting, and the resulting single cell suspension was used. 90 μL splenocytes (cell density 1.7×10^6, 90% viable determined using the NC-100 NucleoCounter system following the manufacturer's (ChemoMetec A/S) protocol) were added 10 μL NAM (N-(9-acridinyl)maleimide, Sigma, #01665, CAS no. 49759-20-8) dissolved in DMSO (100 μg NAM pr. mL DMSO) and mixed by pipetting. Cells were loaded into a NucleoCassette, containing the DNA stain propidium iodide (PI). The cells were investigated using an Olympus IX50 fluorescence microscope, and images were captured using a Lumenera CCD camera and in-house developed software. PI and NAM fluorescence were detected using, respectively, U-MWG2 (green long pass: 510-550 nm) and U-MNUA2 (UV band pass, 330-385 nm) filter cubes (Olympus).
# bone marrow cells = experiment: NAM/PI staining to determine viability of bone marrow derived cells; assay type: cell-based, murine; conditions: 93% viable, 10 μL NAM (100 μg/mL DMSO) in 90 μL cells
# Description: The bone marrow cells were harvested aseptically in the laminar flow hood. Briefly, bilateral tibia and femur were aseptically removed, freed of surrounding soft tissue, and placed in a petri dish with 10 mL 70% ethanol. After 2 minutes they were transferred to ice cold PBS. The bone marrow cavity was then flushed with 5 ml cold PBS using a 5-ml syringe with a 27-gauge needle attached, and the cells were collected from each bone. The cells were centrifuged at 300 g for 10 min, the supernatant was discarded, and cells were washed twice. After the second wash the cell pellet was resuspended in RPMI 1640 (Invitrogen, #61870) supplemented with 10% heat-inactivated fetal bovine serum (Invitrogen, #10108-165), 100 U/mL penicillin and 100 μg/mL streptomycin (Invitrogen, #15140-122). 90 μL bone marrow cells (cell density 1.7×10^6, 93% viable determined using the NC-100 NucleoCounter system following the manufacturer's (ChemoMetec A/S) protocol) were added 10 μL NAM (N-(9-acridinyl)maleimide, Sigma, #01665, CAS no. 49759-20-8) dissolved in DMSO (100 μg NAM pr. mL DMSO) and mixed by pipetting. Cells were loaded into a NucleoCassette, containing the DNA stain propidium iodide (PI). […] PI and NAM fluorescence were detected using, respectively, U-MWG2 (green long pass: 510-550 nm) and U-MNUA2 (UV band pass, 330-385 nm) filter cubes (Olympus).
# [5] = Akasaka et al. 1990; cited from earlier work
Structure (SMILES),staining of cells by CPI versus PI (Jurkat (JM) cells [1]),staining of cells by NAM versus PI (Jurkat (JM) cells [2]),staining of Triton X-100 treated cells (HEK293 cells),"staining of cells by NAM versus PI (HEK293 cells; outgrown HEK293 cells, 78% viable, 10 μg/mL NAM)",staining of cells by NAM versus PI (Drosophila S2 cells),"fluorescence of NAM alone ([3]; NAM 0.33 μg/mL in distilled water, no thiol)","fluorescence on mixing NAM with GSH ([3]; NAM 0.33 μg/mL, GSH 167 μg/mL)",fluorescence on mixing NAM with DTT ([3]; NAM with DTT 167 μg/mL),intracellular localization of fluorescent NAM (MCF-7 cells; GFP-expressing cell lines),intracellular localization of fluorescent NAM (MCF-7 cells; H2B-GFP-expressing cells),intracellular localization of fluorescent NAM (U2OS cells; GFP-expressing cell lines),intracellular localization of fluorescent NAM (U2OS cells; H2B-GFP-expressing cells),intracellular localization of NAM in yeast cells (S. pombe strain Eg328; 10 μg/ml NAM),staining of living and dead yeast cells by NAM (S. pombe strain Eg328; 10 μg/ml NAM and 10 μg/ml propidium iodide),staining of cells by NAM versus PI [4],staining of cells by NAM versus PI (bone marrow cells),fluorescence of NAM upon reaction with sulfite [5]
"CCN(CC)c1ccc2c(C)c(-c3ccc(NC(=O)CI)cc3)c(=O)oc2c1 [CPI, 7-diethylamino-3-((4′-(iodoacetyl)amino)phenyl)-4-methylcoumarin]",nearly all cells were stained by CPI,,,,,,,,,,,,,,,,
"O=C1C=CC(=O)N1c1c2ccccc2nc2ccccc12 [NAM, N-(9-acridinyl)maleimide]",,nearly all cells in the proliferating Jurkat cell culture were stained by NAM; only exception were PI positive cells,NAM negative,NAM and PI were found to complementary stain the outgrown HEK293 cells,NAM and PI were found to complementary stain S2 cells,only exhibited very weak fluorescence,strong synergistic effect with respect to fluorescence,strong synergistic effect with respect to fluorescence,found in both the nucleus and cytosol,found outside as well as inside the nucleus,found in both the nucleus and cytosol,found outside as well as inside the nucleus,localizes to both the nucleus and cytosol,NAM stains both living and dead yeast cells,nearly all the primary spleen cells were stained by NAM; only exception were PI positive cells,nearly all the primary bone marrow cells were stained by NAM; again only exception were PI positive cells,fluoresces strongly
"CC[N+](C)(CC)CCC[n+]1c(-c2ccccc2)c2cc(N)ccc2c2ccc(N)cc21.[I-].[I-] [PI, propidium iodide]",,,PI positive,,,,,,,,,,,,,,
